Assay results published in patent US12552766B2, “Pesticidally active azole amide compounds” (SYNGENTA CROP PROTECTION AG, priority 2019, dated 2026).

Tests used:
Type in all cases: in vivo
[1] = test system: Chilo suppressalis (Striped Rice Stemborer); assay: Example B4: Chilo suppressalis, artificial diet; conditions: 144 h, application rate of 200 ppm, L2 larvae, 6 days after infestation, read-out: control in at least one of the three categories (mortality, anti-feedant effect, or growth inhibition)
Description: 24-well microtiter plates with artificial diet were treated with aqueous test solutions prepared from 10′000 ppm DMSO stock solutions by pipetting. After drying, the plates were infested with L2 larvae (6-8 per well). The samples were assessed for mortality, anti-feeding effect, and growth inhibition in comparison to untreated samples 6 days after infestation. Control of Chilo suppressalis by a test sample is given when at least one of the categories mortality, anti-feedant effect, and growth inhibition is higher than the untreated sample.

[2] = test system: Spodoptera littoralis (Egyptian Cotton Leaf Worm); assay: Example B9: Spodoptera littoralis, spray on cotton leaf discs; conditions: foliar, 72 h, application rate of 200 ppm, L1 larvae, 3 days after infestation, read-out: control in at least one of the three categories (mortality, anti-feedant effect, or growth inhibition)
Description: Cotton leaf discs were placed onto agar in 24-well microtiter plates and sprayed with aqueous test solutions prepared from 10′000 ppm DMSO stock solutions. After drying the leaf discs were infested with five L1 larvae. The samples were assessed for mortality, anti-feeding effect, and growth inhibition in comparison to untreated samples 3 days after infestation. Control of Spodoptera littoralis by a test sample is given when at least one of the categories mortality, anti-feedant effect, and growth inhibition is higher than the untreated sample.

[3] = test system: Plutella xylostella (Diamondback Moth); assay: Example B13: Plutella xylostella, artificial diet, 96-well; conditions: 216 h, application rate of 500 ppm, eggs/L1 larvae, 9 days after infestation
Description: 96-well microtiter plates containing artificial diet were treated with aqueous test solutions, prepared from 10′000 ppm DMSO stock solutions, by a liquid handling robot. After drying, eggs (˜30 per well) were infested onto a netted lid which was suspended above the diet. The eggs hatch and L1 larvae move down to the diet. The samples were assessed for mortality 9 days after infestation.

[4] = test system: Plutella xylostella (Diamond Back Moth); assay: Example B5: Plutella xylostella, artificial diet, 24-well; conditions: 192 h, application rate of 200 ppm, eggs, 8 days after infestation, read-out: control in at least one of the two categories (mortality or growth inhibition)
Description: 24-well microtiter plates with artificial diet were treated with aqueous test solutions prepared from 10′000 ppm DMSO stock solutions by pipetting. After drying, Plutella eggs were pipetted through a plastic stencil onto a gel blotting paper and the plate was closed with it. The samples were assessed for mortality and growth inhibition in comparison to untreated samples 8 days after infestation.

[5] = test system: Diabrotica Balteata (Corn Root Worm); assay: Example B1: Diabrotica balteata, spray on maize sprouts; conditions: 96 h, application rate of 200 ppm, L2 larvae, 4 days after infestation, read-out: control in at least one of the two categories (mortality or growth inhibition)
Description: Maize sprouts placed onto an agar layer in 24-well microtiter plates were treated with aqueous test solutions prepared from 10′000 ppm DMSO stock solutions by spraying. After drying, the plates were infested with L2 larvae (6 to 10 per well). The samples were assessed for mortality and growth inhibition in comparison to untreated samples 4 days after infestation.

CC(NC(=O)c1cc(Br)cc(C(F)(F)F)c1)c1nc(Br)nn1-c1ncc(OC(F)F)cn1 (stereo not shown) [Compound P1, 3-bromo-N-[1-[5-bromo-2-[5-(difluoromethoxy)pyrimidin-2-yl]-1,2,4-triazol-3-yl]ethyl]-5-(trifluoromethyl) benzamide]
≥ 80%: percent control (mortality, anti-feedant effect or growth inhibition) at 200 ppm [1] | percent control (mortality, anti-feedant effect or growth inhibition) at 200 ppm [2] | mortality at 500 ppm [3] | percent control (mortality or growth inhibition) at 200 ppm [4] | percent control (mortality or growth inhibition) at 200 ppm [5]

CC(NC(=O)c1cc(OC(F)F)cc(C(F)(F)F)c1)c1nc(Br)nn1-c1ncc(OC(F)F)cn1 (stereo not shown) [Compound P3, N-[1-[5-bromo-2-[5-(difluoromethoxy)pyrimidin-2-yl]-1,2,4-triazol-3-yl]ethyl]-3-(difluoromethoxy)-5-(trifluoromethyl) benzamide]
≥ 80%: percent control (mortality, anti-feedant effect or growth inhibition) at 200 ppm [1] | percent control (mortality, anti-feedant effect or growth inhibition) at 200 ppm [2] | mortality at 500 ppm [3] | percent control (mortality or growth inhibition) at 200 ppm [4] | percent control (mortality or growth inhibition) at 200 ppm [5]

CC(NC(=O)c1cc(OCC(F)(F)F)cc(C(F)(F)F)c1)c1nc(Br)nn1-c1ncc(OC(F)F)cn1 (stereo not shown) [Compound P4, N-[1-[5-bromo-2-[5-(difluoromethoxy)pyrimidin-2-yl]-1,2,4-triazol-3-yl]ethyl]-3-(2,2,2-trifluoroethoxy)-5-(trifluoromethyl) benzamide]
≥ 80%: percent control (mortality, anti-feedant effect or growth inhibition) at 200 ppm [1] | percent control (mortality, anti-feedant effect or growth inhibition) at 200 ppm [2] | mortality at 500 ppm [3] | percent control (mortality or growth inhibition) at 200 ppm [4] | percent control (mortality or growth inhibition) at 200 ppm [5]

CC(NC(=O)c1cc(C(F)F)cc(C(F)(F)F)c1)c1nc(Br)nn1-c1ccc(C#N)cn1 (stereo not shown) [Compound P8, N-[1-[5-bromo-2-(5-cyano-2-pyridyl)-1,2,4-triazol-3-yl]ethyl]-3-(difluoromethyl)-5-(trifluoromethyl) benzamide]
≥ 80%: percent control (mortality, anti-feedant effect or growth inhibition) at 200 ppm [1] | percent control (mortality, anti-feedant effect or growth inhibition) at 200 ppm [2] | mortality at 500 ppm [3] | percent control (mortality or growth inhibition) at 200 ppm [4] | percent control (mortality or growth inhibition) at 200 ppm [5]

CC(NC(=O)c1cc(Br)cc(C(F)(F)F)c1)c1nc(Br)nn1-c1ccc(OC(F)F)cn1 (stereo not shown) [Compound P13, 3-bromo-N-[1-[5-bromo-2-[5-(difluoromethoxy)-2-pyridyl]-1,2,4-triazol-3-yl]ethyl]-5-(trifluoromethyl) benzamide]
≥ 80%: percent control (mortality, anti-feedant effect or growth inhibition) at 200 ppm [1] | percent control (mortality, anti-feedant effect or growth inhibition) at 200 ppm [2] | mortality at 500 ppm [3] | percent control (mortality or growth inhibition) at 200 ppm [4] | percent control (mortality or growth inhibition) at 200 ppm [5]

CC(NC(=O)c1cc(C(F)(F)F)cc(C(F)(F)F)c1)c1nc(Br)nn1-c1ccc(OCC(F)F)cn1 (stereo not shown) [Compound P15, N-[1-[5-bromo-2-[5-(2,2-difluoroethoxy)-2-pyridyl]-1,2,4-triazol-3-yl]ethyl]-3,5-bis(trifluoromethyl) benzamide]
≥ 80%: percent control (mortality, anti-feedant effect or growth inhibition) at 200 ppm [1] | percent control (mortality, anti-feedant effect or growth inhibition) at 200 ppm [2] | mortality at 500 ppm [3] | percent control (mortality or growth inhibition) at 200 ppm [4] | percent control (mortality or growth inhibition) at 200 ppm [5]

CC(NC(=O)c1cc(C(F)(F)F)cc(C(F)(F)F)c1)c1nc(Br)nn1-c1ccc(OCC(F)(F)F)cn1 (stereo not shown) [Compound P17, N-[1-[5-bromo-2-[5-(2,2,2-trifluoroethoxy)-2-pyridyl]-1,2,4-triazol-3-yl]ethyl]-3,5-bis(trifluoromethyl) benzamide]
≥ 80%: percent control (mortality, anti-feedant effect or growth inhibition) at 200 ppm [1] | percent control (mortality, anti-feedant effect or growth inhibition) at 200 ppm [2] | mortality at 500 ppm [3] | percent control (mortality or growth inhibition) at 200 ppm [4] | percent control (mortality or growth inhibition) at 200 ppm [5]

CC(NC(=O)c1cc(Br)cc(C(F)(F)F)c1)c1nc(Br)nn1-c1ncc(OCC(F)F)cn1 (stereo not shown) [Compound P18, 3-bromo-N-[1-[5-bromo-2-[5-(2,2-difluoroethoxy)pyrimidin-2-yl]-1,2,4-triazol-3-yl]ethyl]-5-(trifluoromethyl) benzamide]
≥ 80%: percent control (mortality, anti-feedant effect or growth inhibition) at 200 ppm [1] | percent control (mortality, anti-feedant effect or growth inhibition) at 200 ppm [2] | mortality at 500 ppm [3] | percent control (mortality or growth inhibition) at 200 ppm [4] | percent control (mortality or growth inhibition) at 200 ppm [5]

CC(NC(=O)c1cc(OCC(F)F)cc(C(F)(F)F)c1)c1nc(Br)nn1-c1ncc(OCC(F)(F)F)cn1 (stereo not shown) [Compound P20, N-[1-[5-bromo-2-[5-(2,2,2-trifluoroethoxy)pyrimidin-2-yl]-1,2,4-triazol-3-yl]ethyl]-3-(2,2-difluoroethoxy)-5-(trifluoromethyl) benzamide]
≥ 80%: percent control (mortality, anti-feedant effect or growth inhibition) at 200 ppm [1] | percent control (mortality, anti-feedant effect or growth inhibition) at 200 ppm [2] | mortality at 500 ppm [3] | percent control (mortality or growth inhibition) at 200 ppm [4]

CC(NC(=O)c1cc(OCC(F)F)cc(C(F)(F)F)c1)c1nc(Br)nn1-c1ccc(OC(F)F)cn1 (stereo not shown) [Compound P34, N-[1-[5-bromo-2-[5-(difluoromethoxy)-2-pyridyl]-1,2,4-triazol-3-yl]ethyl]-3-(2,2-difluoroethoxy)-5-(trifluoromethyl) benzamide]
≥ 80%: percent control (mortality, anti-feedant effect or growth inhibition) at 200 ppm [1] | percent control (mortality, anti-feedant effect or growth inhibition) at 200 ppm [2] | percent control (mortality or growth inhibition) at 200 ppm [4] | percent control (mortality or growth inhibition) at 200 ppm [5]

CC(NC(=O)c1cc(OCC(F)F)cc(C(F)(F)F)c1)c1nc(Br)nn1-c1ccc(OCC(F)F)cn1 (stereo not shown) [Compound P36, N-[1-[5-bromo-2-[5-(2,2-difluoroethoxy)-2-pyridyl]-1,2,4-triazol-3-yl]ethyl]-3-(2,2-difluoroethoxy)-5-(trifluoromethyl) benzamide]
≥ 80%: percent control (mortality, anti-feedant effect or growth inhibition) at 200 ppm [2] | mortality at 500 ppm [3] | percent control (mortality or growth inhibition) at 200 ppm [4]

CC(NC(=O)c1cc(OC(F)F)cc(C(F)(F)F)c1)c1nc(Br)nn1-c1ccc(OCC(F)(F)F)cn1 (stereo not shown) [Compound P38, N-[1-[5-bromo-2-[5-(2,2,2-trifluoroethoxy)-2-pyridyl]-1,2,4-triazol-3-yl]ethyl]-3-(difluoromethoxy)-5-(trifluoromethyl) benzamide]
≥ 80%: percent control (mortality, anti-feedant effect or growth inhibition) at 200 ppm [1] | percent control (mortality, anti-feedant effect or growth inhibition) at 200 ppm [2] | percent control (mortality or growth inhibition) at 200 ppm [4] | percent control (mortality or growth inhibition) at 200 ppm [5]

CC(NC(=O)c1cc(C(F)F)cc(C(F)(F)F)c1)c1nc(Br)nn1-c1ccc(OC(F)F)cn1 (stereo not shown) [Compound P51, N-[1-[5-bromo-2-[5-(difluoromethoxy)-2-pyridyl]-1,2,4-triazol-3-yl]ethyl]-3-(difluoromethyl)-5-(trifluoromethyl) benzamide]
≥ 80%: percent control (mortality, anti-feedant effect or growth inhibition) at 200 ppm [1] | percent control (mortality, anti-feedant effect or growth inhibition) at 200 ppm [2] | percent control (mortality or growth inhibition) at 200 ppm [4] | percent control (mortality or growth inhibition) at 200 ppm [5]

CC(NC(=O)c1cc(OCC(F)(F)F)cc(C(F)(F)F)c1)c1nc(Br)nn1-c1ccc(OCC(F)F)cn1 (stereo not shown) [Compound P53, N-[1-[5-bromo-2-[5-(2,2-difluoroethoxy)-2-pyridyl]-1,2,4-triazol-3-yl]ethyl]-3-(2,2,2-trifluoroethoxy)-5-(trifluoromethyl) benzamide]
≥ 80%: percent control (mortality, anti-feedant effect or growth inhibition) at 200 ppm [1] | mortality at 500 ppm [3] | percent control (mortality or growth inhibition) at 200 ppm [4]

CC(NC(=O)c1cc(C(F)F)cc(C(F)(F)F)c1)c1nc(Br)nn1-c1ccc(OCC(F)(F)F)cn1 (stereo not shown) [Compound P54, N-[1-[5-bromo-2-[5-(2,2,2-trifluoroethoxy)-2-pyridyl]-1,2,4-triazol-3-yl]ethyl]-3-(difluoromethyl)-5-(trifluoromethyl) benzamide]
≥ 80%: percent control (mortality, anti-feedant effect or growth inhibition) at 200 ppm [1] | percent control (mortality, anti-feedant effect or growth inhibition) at 200 ppm [2] | percent control (mortality or growth inhibition) at 200 ppm [4] | percent control (mortality or growth inhibition) at 200 ppm [5]

CO/N=C(\C)c1nc(C(C)NC(=O)c2cc(C(F)(F)F)cc(C(F)(F)F)c2)n(-c2ccc(C#N)cn2)n1 (stereo not shown) [Compound P56, N-[1-[2-(5-cyano-2-pyridyl)-5-[(E)-N-methoxy-C-methyl-carbonimidoyl]-1,2,4-triazol-3-yl]ethyl]-3,5-bis(trifluoromethyl) benzamide]
≥ 80%: mortality at 500 ppm [3]
